# Structures can show the parent of a compound that is named as a salt.
# What was measured:
# Conditions in all cases: exposure time 48 h
# [1] = test system: Caenorhabditis elegans N2; test: AC50 for larval growth inhibition (Hill fit); higher = less potent
# Method in brief: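 C. elegans N2 L1 larvae, synchronised and plated at 50 per well in 96-well plates, were exposed for 48 h at 20°C to 0.5–200 µM chemical in K-medium with killed OP50 and 1% DMSO. Log-transformed extinction from a COPAS Biosort served as worm size, averaged per well. Wells containing at least 10 worms entered the fit. A constrained Hill fit by weighted genetic-algorithm regression yielded the AC50, censored when out of range.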
# [2] = test system: Caenorhabditis elegans N2; test: mean nematode size ln(EXT) after 48 h, plate-adjusted (DMSO control set to 6) (ln(EXT), control-adjusted); higher = larger nematodes / less growth inhibition
# Method in brief: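 Synchronised C. elegans N2 L1 larvae were grown for 48 h at 20°C in K-medium containing killed OP50, 1% DMSO and 0.5–200 µM chemical, at 50 per well and 4–6 wells per treatment. The Biosort recorded extinction for each worm, and a growth model removed debris. Worm size was obtained by natural-logging these values and averaging them per well. For plate adjustment, the vehicle control mean was subtracted and 6 was added.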
# [3] = test system: Caenorhabditis elegans N2; test: lowest effective concentration for larval growth inhibition (size below effect threshold); higher = less potent
# Method in brief: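 L1 larvae of C. elegans N2 (50 per 96-well) were grown in K-medium with killed bacteria and 1% DMSO, with the chemical at 0.5, 1, 5, 10, 50, 100 or 200 µM, for 48 h at 20°C. Per-worm extinction from the Biosort stood for size and was log-transformed into well means. For each chemical, the lowest effective concentration is the first dose where plate-adjusted mean size falls under the threshold and stays under it at the higher doses, using a threshold of 5.665.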
SMILES,AC50 for larval growth inhibition [1] [µM],mean nematode size ln(EXT) (ln) ([2]; 0.5 µM),mean nematode size ln(EXT) (ln) ([2]; 1 µM),mean nematode size ln(EXT) (ln) ([2]; 5 µM),mean nematode size ln(EXT) (ln) ([2]; 10 µM),mean nematode size ln(EXT) (ln) ([2]; 50 µM),mean nematode size ln(EXT) (ln) ([2]; 100 µM),mean nematode size ln(EXT) (ln) ([2]; 200 µM),lowest effective concentration [3] [µM]
Nc1cc(Cl)cc(C(=O)O)c1Cl [Chloramben],> 200,5.87,5.9,5.88,5.9,5.46,5.58,5.3,50
ClC1=C(Cl)C2(Cl)C3C(Cl)C(Cl)CC3C1(Cl)C2(Cl)Cl (configuration not stated) [Chlordane],8.58,5.98,5.93,5.24,4.63,3.8,3.81,3.48,5
O=C(O)C1C(C(=O)O)C2(Cl)C(Cl)=C(Cl)C1(Cl)C2(Cl)Cl (configuration not stated) [Chlorendic acid],> 200,5.71,5.85,5.82,5.84,5.76,5.65,5.45,100
CCOP(=S)(OCC)OC(Cl)C(Cl)(Cl)Cl (configuration not stated) [Chlorethoxyfos],13.2,5.75,5.76,5.76,5.7,4.54,5.09,3.42,50
CCOC(=O)C(O)(c1ccc(Cl)cc1)c1ccc(Cl)cc1 [Chlorobenzilate],39.4,6.05,5.97,5.87,5.64,4.21,4.08,3.11,10
COc1cc(Cl)c(OC)cc1Cl [Chloroneb],> 200,5.75,5.71,5.58,5.7,5.96,5.97,5.47,200
N#Cc1c(Cl)c(Cl)c(Cl)c(C#N)c1Cl [Chlorothalonil],193,5.66,5.94,5.95,5.95,5.88,5.85,4.4,200
CN(C)CCCN1c2ccccc2Sc2ccc(Cl)cc21 [Chlorpromazine hydrochloride],46.3,5.89,5.87,5.82,5.71,4.47,3.85,3.07,50
CC(C)OC(=O)Nc1cccc(Cl)c1 [Chlorpropham],60.7,5.75,5.77,5.9,5.95,5.82,4.79,4.32,100
CCOP(=O)(OCC)Oc1nc(Cl)c(Cl)cc1Cl [Chlorpyrifos oxon],1.24,4.98,4.42,4.26,4.05,3.47,3.24,3.15,≤ 0.5
COP(=S)(OC)Oc1nc(Cl)c(Cl)cc1Cl [Chlorpyrifos-methyl],96.8,6.24,6.29,6.3,6.17,5.93,4.68,3.59,100
CCOP(=S)(OCC)Oc1nc(Cl)c(Cl)cc1Cl [Chlorpyrifos],2.28,5.55,5.06,4.29,3.42,3.29,3.43,3.06,≤ 0.5
COC(=O)c1c(Cl)c(Cl)c(C(=O)OC)c(Cl)c1Cl [Chlorthal-dimethyl],> 200,5.89,5.95,5.78,5.83,5.75,5.56,5.42,100
Cc1ccccc1CO[C@@H]1C[C@@]2(C(C)C)CCC1(C)O2 [Cinmethylin],> 200,5.94,5.99,6,6.07,5.92,5.77,4.9,200
CC(C)=CCCC(C)CCO (configuration not stated) [Citronellol],> 200,5.82,5.87,5.92,5.78,5.86,5.73,5.6,200
C#CCOC(=O)[C@@H](C)Oc1ccc(Oc2ncc(Cl)cc2F)cc1 [Clodinafop-propargyl],106,5.98,5.9,6.05,5.94,6.15,5.84,5.14,200
CCOC(=O)C(C)(C)Oc1ccc(Cl)cc1 [Clofibrate],> 200,6.01,5.8,5.86,5.81,5.75,5.78,5.54,200
Oc1ccc(Cl)cc1Cc1ccccc1 [Clorophene],92,5.89,5.87,5.83,5.73,5.15,4.62,3.79,50
Clc1ccccc1C(c1ccccc1)(c1ccccc1)n1ccnc1 [Clotrimazole],18.8,5.8,5.74,5.4,4.95,3.89,3.9,3.23,5

SMILES,AC50 for larval growth inhibition [1] [µM],mean nematode size ln(EXT) (ln) ([2]; 0.5 µM),mean nematode size ln(EXT) (ln) ([2]; 1 µM),mean nematode size ln(EXT) (ln) ([2]; 5 µM),mean nematode size ln(EXT) (ln) ([2]; 10 µM),mean nematode size ln(EXT) (ln) ([2]; 50 µM),mean nematode size ln(EXT) (ln) ([2]; 100 µM),mean nematode size ln(EXT) (ln) ([2]; 200 µM),lowest effective concentration [3] [µM]
CCOP(=S)(OCC)Oc1ccc2c(C)c(Cl)c(=O)oc2c1 [Coumaphos],3.33,5.36,5.23,4.39,4.44,3.95,3.82,3.58,≤ 0.5
CC(C)(OO)c1ccccc1 [Cumene hydroperoxide],> 200,5.92,5.91,5.94,5.75,5.88,5.75,5.62,200
Cc1ccc(-c2c(Cl)nc(C#N)n2S(=O)(=O)N(C)C)cc1 [Cyazofamid],60.5,5.91,5.91,5.88,6.02,5.84,5.29,4.91,100
CCSC(=O)N(CC)C1CCCCC1 [Cycloate],105,6.06,6.1,5.93,6.05,6.03,5.76,5.06,200
CC1=C2C[C@H]3[C@@H](CC=C4C[C@@H](O)CC[C@@]43C)[C@@H]2CC[C@]12O[C@@H]1C[C@H](C)CN[C@H]1[C@H]2C [Cyclopamine],> 200,5.89,5.89,5.9,5.85,5.9,5.8,5.39,200
CCCCOC(=O)[C@H](C)Oc1ccc(Oc2ccc(C#N)cc2F)cc1 [Cyhalofop-butyl],107,6,6,6.12,6.17,6.08,5.91,5.22,200
CCNC(=O)NC(=O)/C(C#N)=N/OC [Cymoxanil],> 200,6.18,6.05,6.07,6.11,5.79,5.58,4.81,100
CC1(C)C(C=C(Cl)Cl)C1C(=O)OC(C#N)c1cccc(Oc2ccccc2)c1 (configuration not stated) [Cypermethrin],> 200,6.09,6.11,6.12,6.03,5.88,5.71,5.17,200
CC(C1CC1)C(O)(Cn1cncn1)c1ccc(Cl)cc1 (configuration not stated) [Cyproconazole],> 200,5.92,5.92,5.85,5.99,6.17,6.33,5.59,200
Cc1cc(C2CC2)nc(Nc2ccccc2)n1 [Cyprodinil],132,5.93,5.88,5.96,5.86,5.32,5.01,4,50
Nc1ccn([C@@H]2O[C@H](CO)[C@@H](O)[C@@H]2O)c(=O)n1 [Cytarabine HCl],> 200,5.96,5.87,5.95,6,5.89,6.03,5.47,200
OC[C@@H](O)[C@@H](O)[C@H](O)[C@H](O)CO [D-Mannitol],> 200,5.94,5.89,5.93,5.96,5.93,5.94,5.42,200
CN(C)NC(=O)CCC(=O)O [Daminozide],> 200,6.43,6.07,6.34,6.17,6,6.01,5.44,200
CC(C)(C)c1cc(/C=C2\SC(=N)NC2=O)cc(C(C)(C)C)c1O [Darbufelone mesylate],31.2,5.59,5.62,5.03,5.48,4.17,4.18,3.87,≤ 0.5
CCCCCCCCCC(=O)O [Decanoic acid],> 200,5.89,5.86,5.85,5.87,5.85,5.68,5.66,200
CCCCC(CC)COC(=O)CCCCC(=O)OCC(CC)CCCC (configuration not stated) [Di(2-ethylhexyl)adipate],> 200,5.87,5.8,5.73,5.76,5.75,5.82,5.55,200
CC(C)(C)OOC(C)(C)C [Di-tert-butyl peroxide],> 200,5.88,5.88,5.96,5.83,5.59,5.79,5.31,200
C=CCOC(=O)c1ccccc1C(=O)OCC=C [Diallyl phthalate],> 200,5.88,5.92,5.94,5.96,5.88,5.84,5.65,200
CCOP(=S)(OCC)Oc1cc(C)nc(C(C)C)n1 [Diazinon],70.9,5.98,5.94,5.84,5.86,5.33,4.12,3.6,50
